Source: PubChem BioAssay AID2060508 (Molecular Pharmacology Branch, DTP, NCI, 2025)

System: 454973-116-R2-J3-PDC spheroids, viability, % test/control
Test: Anticancer human tumor 454973-116-R2-J3-PDC patient-derived pancreatic carcinoma cell line growth inhibition [GQUAD]
Conditions: spheroids with HUVEC and MSC; for IC50: curve of first compound; for viability, T/C: stronger effect = lower value
Text: DNA G-quadruplex Stabilizer Agents in Combinations in Complex Spheroids
A high-throughput screen of multi-cell type tumor spheroids was designed to identify active combinations of DNA G-quadruplex stabilizer agents and targeted small molecules. Complex spheroids include a stromal component modeled by human endothelial cells (HUVEC) and fibroblasts modeled by human mesenchymal stem cells (MSCs). The concentration ranges selected for each drug and investigational agent were based upon clinically achievable concentrations if the clinical Cmax of the agent was known.
Compounds. The drugs and investigational agents: pidnarulex (CX-5461; NSC782164), APTO-253 (NSC789042), BRACO-19 (NSC847499), peposertib (NSC802822), ceralasertib (NSC780249), elimusertib (NSC800525), camonsertib (NSC841442), AZD-1390 (NSC803789), olaparib (NSC753686), talazoparib (NSC767125), ART-558 (NSC835418), sotorasib (NSC818433), MRTX-1133 (NSC836407), SN-38 (NSC673596), topotecan (NSC609699), etoposide (NSC141540), doxorubicin (NSC123127), gemcitabine (NSC613327), 5-fluorouracil (NSC19893), paclitaxel (NSC125973), vemurafenib (NSC761431), panobinostat (NSC761190), R-306465 (JNJ-16241199; NSC773264), adavosertib (NSC754352), TP-3654 (NSC805149), carboplatin (NSC241240), KSQ-4279 (NSC840948), and staurosporine (NSC755774) were obtained from the National Cancer Institute (NCI) Developmental Therapeutics Program Chemical Repository (34). The FDA-approved anticancer drug set is available from the NCI Developmental Therapeutics Program. […] The stock solutions were prepared in dimethyl sulfoxide (DMSO, Sigma-Aldrich, St. Louis, MO, cat. D2650) at 800-fold the tested concentration and stored at -70 degrees C prior to their use. All drugs and investigational agents were tested over a range starting from a high concentration at or near the clinical Cmax and decreasing in half-log increments. If the clinical Cmax for an agent had not been determined, the highest concentration tested was 10 microM.
2.3 Cell Culture. All cells were maintained in an incubator at 37 degrees C and 5% CO2 with 95% humidity. The PDC lines were cultured according to standard operating procedures established by the NCI PDMR. All PDCs were thawed and cultured in Matrigel-coated flasks prepared with a working solution of 1X Ham's F-12 nutrient mix, without supplementation (Invitrogen, cat. 11765054), 100 U/mL penicillin-streptomycin (Invitrogen, cat. 15140122), and 2.5% Matrigel (Corning Inc., cat. 354248) for the first three passages. The 857933-349-R-J2-PDC line was cultured in 6C/Colon 1B media, which includes advanced DMEM/F-12 (Thermo Fisher Scientific, cat. 12634028), 10 mM HEPES (Thermo Fisher Scientific, cat. 15630080), 1X GlutaMAX supplement (Thermo Fisher Scientific, cat. 35050061), 0.1 mg/mL primocin (InvivoGen, cat. ant-pm-2), 10% defined fetal bovine serum, heat inactivated (HyClone Laboratories Inc., cat. SH30070.03HI), 50% L-WRN conditioned media (ATCC, cat. CRL-3276), 1.25 mM N-Acetyl-L-cysteine (Sigma-Aldrich, cat. A9165), 10 mM nicotinamide (Sigma-Aldrich, cat. N0636), 1X B-27 supplement (Thermo Fisher Scientific, cat. 17504044), 1X N-2 supplement (Thermo Fisher Scientific, cat. 17502048), 10 microM Y-27632 dihydrochloride (Tocris Bioscience, cat. 1254), and 50 ng/mL human EGF recombinant protein (Thermo Fisher Scientific, cat. PHG0311). The 485176-168-R4-J1-PDC line was cultured in Panc media, which includes all 6C/Colon 1B media components plus 100 ng/mL human FGF-10 (Thermo Fisher Scientific, cat. 100-26), 500 nM SB-431542 (Selleckchem, cat. S1067), and gastrin (Tocris, cat. 3006).
[…]

[1] = second compound 0.0316 µM, first compound 0.000999 µM
[2] = second compound 0.0316 µM, first compound 0.00316 µM
[3] = second compound 0.0316 µM, first compound 0.00999 µM
[4] = second compound 0.0316 µM, first compound 0.0316 µM
[5] = second compound 0.0316 µM, first compound 0.0999 µM
[6] = second compound 0.0316 µM, first compound 0.316 µM
[7] = second compound 0.1 µM, first compound 0.000999 µM
[8] = second compound 0.1 µM, first compound 0.00316 µM
[9] = second compound 0.1 µM, first compound 0.00999 µM
[10] = second compound 0.1 µM, first compound 0.0316 µM
[11] = second compound 0.1 µM, first compound 0.0999 µM
[12] = second compound 0.1 µM, first compound 0.316 µM
[13] = second compound 0.316 µM, first compound 0.000999 µM
[14] = second compound 0.316 µM, first compound 0.00316 µM
[15] = second compound 0.316 µM, first compound 0.00999 µM
[16] = second compound 0.316 µM, first compound 0.0316 µM
[17] = second compound 0.316 µM, first compound 0.0999 µM
[18] = second compound 0.316 µM, first compound 0.316 µM
[19] = second compound 1 µM, first compound 0.000999 µM
[20] = second compound 1 µM, first compound 0.00316 µM
[21] = second compound 1 µM, first compound 0.00999 µM
[22] = second compound 1 µM, first compound 0.0316 µM
[23] = second compound 1 µM, first compound 0.0999 µM
[24] = second compound 1 µM, first compound 0.316 µM
[25] = second compound 3.16 µM, first compound 0.000999 µM
[26] = second compound 3.16 µM, first compound 0.00316 µM
[27] = second compound 3.16 µM, first compound 0.00999 µM
[28] = second compound 3.16 µM, first compound 0.0316 µM
[29] = second compound 3.16 µM, first compound 0.0999 µM
[30] = second compound 3.16 µM, first compound 0.316 µM
[31] = second compound 10 µM, first compound 0.000999 µM
[32] = second compound 10 µM, first compound 0.00316 µM
[33] = second compound 10 µM, first compound 0.00999 µM
[34] = second compound 10 µM, first compound 0.0316 µM
[35] = second compound 10 µM, first compound 0.0999 µM
[36] = second compound 10 µM, first compound 0.316 µM
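Also: spheroids exposed to compounds for seven days.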

CC[C@@]1(O)C(=O)OCc2c1cc1n(c2=O)Cc2cc3c(CN(C)C)c(O)ccc3nc2-1 + Cc1cnc(CNC(=O)c2c(=O)c3ccc(N4CCCN(C)CC4)nc3n3c2sc2ccccc23)cn1 was tested, and the IC50 (second compound 0.0316 µM) was 29.5 nM, the IC50 (second compound 0.1 µM) was 20.4 nM and the IC50 (second compound 0.316 µM) was 17.5 nM. For the same compound, the IC50 (second compound 1 µM) was 24.4 nM, the IC50 (second compound 3.16 µM) was 189 nM and the IC50 (second compound 10 µM) was < 0.999 nM. For the same compound, the viability, T/C [1] was 104%, the viability, T/C [2] was 95.8% and the viability, T/C [3] was 84.9%. The viability, T/C [4] was 49%, the viability, T/C [5] was 21.9% and the viability, T/C [6] was 23.7%. The viability, T/C [7] was 90.8%, the viability, T/C [8] was 90.2% and the viability, T/C [9] was 77%. It also gave a viability, T/C [10] of 33.4%, a viability, T/C [11] of 24.8% and a viability, T/C [12] of 23.1%. It also gave a viability, T/C [13] of 79.9%, a viability, T/C [14] of 69.1% and a viability, T/C [15] of 55.6%. It also gave a viability, T/C [16] of 43.1%, a viability, T/C [17] of 39.2% and a viability, T/C [18] of 32.9%. It also gave a viability, T/C [19] of 67.1%, a viability, T/C [20] of 67.6% and a viability, T/C [21] of 54.9%. It also gave a viability, T/C [22] of 48.4%, a viability, T/C [23] of 50% and a viability, T/C [24] of 47.4%. It also gave a viability, T/C [25] of 61.2%, a viability, T/C [26] of 63.4% and a viability, T/C [27] of 60.2%. For the same compound, the viability, T/C [28] was 49.6%, the viability, T/C [29] was 61.7% and the viability, T/C [30] was 42.7%. It also gave a viability, T/C [31] of 19.2%, a viability, T/C [32] of 17.5% and a viability, T/C [33] of 57%. The viability, T/C [34] was 45.9%, the viability, T/C [35] was 0.31% and the viability, T/C [36] was 0.23%.
With CCc1c2c(nc3ccc(O)cc13)-c1cc3c(c(=O)n1C2)COC(=O)[C@]3(O)CC + Cc1cnc(CNC(=O)c2c(=O)c3ccc(N4CCCN(C)CC4)nc3n3c2sc2ccccc23)cn1 the IC50 (second compound 0.0316 µM) was < 0.999 nM, the IC50 (second compound 0.1 µM) was < 0.999 nM and the IC50 (second compound 0.316 µM) was < 0.999 nM. The IC50 (second compound 1 µM) was 1.45 nM, the IC50 (second compound 3.16 µM) was 4.04 nM and the IC50 (second compound 10 µM) was < 0.999 nM. The viability, T/C [1] was 45.7%, the viability, T/C [2] was 24.6% and the viability, T/C [3] was 22.9%. For the same compound, the viability, T/C [4] was 12.3%, the viability, T/C [5] was 7.38% and the viability, T/C [6] was 4.15%. For the same compound, the viability, T/C [7] was 36.2%, the viability, T/C [8] was 24.1% and the viability, T/C [9] was 22.9%. The viability, T/C [10] was 14.8%, the viability, T/C [11] was 7.21% and the viability, T/C [12] was 4.8%. It also gave a viability, T/C [13] of 37.7%, a viability, T/C [14] of 34.2% and a viability, T/C [15] of 33.7%. For the same compound, the viability, T/C [16] was 15.9%, the viability, T/C [17] was 7.83% and the viability, T/C [18] was 4.86%. For the same compound, the viability, T/C [19] was 47.1%, the viability, T/C [20] was 54.1% and the viability, T/C [21] was 36.5%. The viability, T/C [22] was 22.2%, the viability, T/C [23] was 7.17% and the viability, T/C [24] was 2.75%. For the same compound, the viability, T/C [25] was 59.7%, the viability, T/C [26] was 51.9% and the viability, T/C [27] was 40%. For the same compound, the viability, T/C [28] was 26.1%, the viability, T/C [29] was 7.65% and the viability, T/C [30] was 0.55%. It also gave a viability, T/C [31] of 16.4%, a viability, T/C [32] of 16.7% and a viability, T/C [33] of 38.7%. It also gave a viability, T/C [34] of 0.26%, a viability, T/C [35] of 0.24% and a viability, T/C [36] of 0.7%.
